Experiments:
[1] = tested on: SKBR3 (PI3Kα-Wild Type) cell line; assay: HTRF phospho-AKT(S473) cell assay in SKBR3 cells; assay type: cell-based, human; details: Homo sapiens, SK-BR-3; HTRF phospho-AKT(S473), SKBR3 (PI3Kα-Wild Type) cells, 2 hours compound incubation, PDGF-BB stimulated
In short: (§1)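 HTRF read-out of phospho-AKT(S473) in lysates gave IC50 values after 2 h compound exposure at 37° C. Dose series was 12 points at 1:3, topping at 5 μM for T47D and 10 μM for SKBR3. Only SKBR3 received 70 ng/ml PDGF-BB during the last 15 minutes.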

[2] = tested on: T47D (PI3Kα-H1047R) cell line; assay: HTRF phospho-AKT(S473) cell assay in T47D cells; assay type: cell-based, human; details: Homo sapiens; HTRF phospho-AKT(S473), T47D (PI3Kα-H1047R) cells, 2 hours compound incubation
In short: as §1

IC50 [1] [nM]	IC50 [2] [nM]	SMILES
≥ 5000	250 to 500	Cc1cc([C@@H](C)Nc2ccc(Cl)nc2C(=O)NS(C)(=O)=O)c2nc(-c3ccc(OC4CCN(CC(F)F)CC4)nc3)n(C)c(=O)c2c1 [Compound 815, (R)-6-chloro-3-((1-(2-(6-((1-(2,2-difluoroethyl)piperidin-4-yl)oxy)pyridin-3-yl)-3,6-dimethyl-4-oxo-3,4-dihydroquinazolin-8-yl)ethyl)amino)-N-(methylsulfonyl) picolinamide]
1000 to 5000	< 250	[2H]C([2H])([2H])n1cc2cc(-c3nc4c([C@@H](C)Nc5ccc(Cl)nc5C(=O)NS(C)(=O)=O)cc(C)cc4c(=O)n3C)ccc2n1 [Compound 817, (R)-6-chloro-3-((1-(3,6-dimethyl-2-(2-(methyl-d3)-2H-indazol-5-yl)-4-oxo-3,4-dihydroquinazolin-8-yl)ethyl)amino)-N-(methylsulfonyl) picolinamide]
1000 to 5000	250 to 500	Cc1cc([C@@H](C)Nc2ccc(Cl)nc2C(=O)NS(C)(=O)=O)c2nc(-c3ccc4nn(C5CC5)cc4c3)n(C)c(=O)c2c1 [Compound 819, (R)-6-chloro-3-((1-(2-(2-cyclopropyl-2H-indazol-5-yl)-3,6-dimethyl-4-oxo-3,4-dihydroquinazolin-8-yl)ethyl)amino)-N-(methylsulfonyl) picolinamide]
1000 to 5000	< 250	Cc1cc([C@@H](C)Nc2ccc(Cl)nc2C(=O)NS(C)(=O)=O)c2nc([C@H]3[C@@H]4CN(c5cnc(C)nc5)C[C@@H]43)n(C)c(=O)c2c1 [Compound 820, 6-chloro-3-(((R)-1-(3,6-dimethyl-2-((1R,5S,6r)-3-(2-methylpyrimidin-5-yl)-3-azabicyclo[3.1.0]hexan-6-yl)-4-oxo-3,4-dihydroquinazolin-8-yl)ethyl)amino)-N-(methylsulfonyl) picolinamide]

Further lines, the molecule ahead of its results:

SMILES	IC50 [1] [nM]	IC50 [2] [nM]
Cc1cc([C@@H](C)Nc2ccc(Cl)nc2C(=O)NS(C)(=O)=O)c2nc(-c3ccc(Oc4cnn(C)c4)nc3)n(C)c(=O)c2c1 [Compound 816, (R)-6-chloro-3-((1-(3,6-dimethyl-2-(6-((1-methyl-1H-pyrazol-4-yl)oxy)pyridin-3-yl)-4-oxo-3,4-dihydroquinazolin-8-yl)ethyl)amino)-N-(methylsulfonyl) picolinamide]	1000 to 5000	< 250
[2H]C([2H])([2H])n1ncc2cc(-c3nc4c([C@@H](C)Nc5ccc(Cl)nc5C(=O)NS(C)(=O)=O)cc(C)cc4c(=O)n3C)ccc21 [Compound 818, (R)-6-chloro-3-((1-(3,6-dimethyl-2-(1-(methyl-d3)-1H-indazol-5-yl)-4-oxo-3,4-dihydroquinazolin-8-yl)ethyl)amino)-N-(methylsulfonyl) picolinamide]	1000 to 5000	< 250
Cc1cc([C@@H](C)Nc2ccc(Cl)nc2C(=O)NS(C)(=O)=O)c2nc(-c3ccc4oc(C)nc4c3)n(C)c(=O)c2c1 [Compound 821, (R)-6-chloro-3-((1-(3,6-dimethyl-2-(2-methylbenzo[d]oxazol-5-yl)-4-oxo-3,4-dihydroquinazolin-8-yl)ethyl)amino)-N-(methylsulfonyl) picolinamide]	≥ 5000	250 to 500
Cc1cc([C@@H](C)Nc2ccc(Cl)nc2C(=O)NS(C)(=O)=O)c2nc(-c3ccn4nc(C)nc4c3)n(C)c(=O)c2c1 [Compound 822, (R)-6-chloro-3-((1-(3,6-dimethyl-2-(2-methyl-[1,2,4]triazolo[1,5-a]pyridin-7-yl)-4-oxo-3,4-dihydroquinazolin-8-yl)ethyl)amino)-N-(methylsulfonyl) picolinamide]	≥ 5000	250 to 500
Cc1cc([C@@H](C)Nc2ccc(Cl)nc2C(=O)NS(C)(=O)=O)c2nc(-c3ccc4nc(C)nn4c3)n(C)c(=O)c2c1 [Compound 823, (R)-6-chloro-3-((1-(3,6-dimethyl-2-(2-methyl-[1,2,4]triazolo [1,5-a]pyridin-6-yl)-4-oxo-3,4-dihydroquinazolin-8-yl)ethyl)amino)-N-(methylsulfonyl) picolinamide]	≥ 5000	500 to 1000

Reference: US12281122B1, “PI3K inhibitors” (Cogent Biosciences, Inc., priority 2023, dated 2025)
